This is an account of results in patent US10233179B2, “Thiazoles and uses thereof” (AbbVie Inc., priority 2013, dated 2019).

Data set [1] has as its system HEp-2 cells. Nature of the data set: Cytotoxicity assay (MTT) in parallel with the antiviral assay. The class given is cell-based. The procedure: HEp-2 cells and RSV (Group A, Long Strain) were obtained from the American Type Culture Collection (Manassas, Va.). Cytotoxicity of the compounds was determined in experiments done in parallel with the antiviral assays. To do this, 100 μL of assay medium was added to the wells of HEp-2 cells pretreated with 100 μL serially diluted compounds as described above. After 4 days of incubation, the viability of the cells was determined by the MTT assay in the same way as detailed in the “Antiviral Assay” method. Results were expressed as 50% toxicity dose (TD50) values. Compounds were tested to determine both their antiviral and toxicity to determine their therapeutic window. Determination of the EC50 and TD50 of these active compounds were repeated one additional time to confirm the window.

Data set [2] relates to RSV (Group A, Long Strain). The data set can be described thus: Antiviral cytopathic effect (CPE) protection assay, MTT readout. It is filed as cell-based. Conditions: human respiratory syncytial virus, 96 h; HEp-2 cells, 0.2 MOI RSV, 4 days incubation, protection from CPE by MTT. As for the experimental part:
HEp-2 cells and RSV (Group A, Long Strain) were obtained from the American Type Culture Collection (Manassas, Va.).
A cytopathic effect (CPE) protection assay was performed to determine the ability of a compound to protect the cells from viral infection and thus the CPE induced by viral infection. 96-Well plates were first seeded with 3×10^3 HEp-2 cells per well in Dulbecco's modified Eagle's medium (DMEM) containing 10% fetal bovine serum (FBS). One day after the cells were seeded, they were preincubated with serial dilutions of compounds prepared in 100 μL assay medium (DMEM mixed with F12 medium at a 1:1 ratio, supplemented with 2% FBS and 1 mM sodium pyruvate) for 1 hour at 37° C. 100 μL of assay medium containing 0.2 multiplicity of infection (MOI) of RSV was then added to each well of cells. In addition to wells containing infected cells incubated with compounds, each plate also contained replicates of two kinds of controls: (1) Virus control contained cells infected with 0.2 MOI of RSV in assay medium, (2) Uninfected cell control contained cells incubated with assay medium only. After 4 days of incubation at 37° C., the viability of cells was assessed using MTT (Thiazolyl blue tetrazolium bromide, Sigma). A stock solution of MTT, at a concentration of 4 mg/mL in phosphate-buffered saline, was added to all wells at 25 μL per well. Plates were further incubated for 4 hours, and each well was then treated with 50 μL of a solution containing 20% sodium dodecyl sulfate (SDS) and 0.02 N HCl. After an overnight incubation, the plates were measured on a BioTek® microtiter plate reader at wavelengths of 570 nm and 650 nm. The MTT detection is based on the fact that viable (uninfected) cells can reduce the tetrazolium salts into colored formazan products, which can then be quantitated by spectrometry. Based on the spectrometric absorbance of each sample, the percent of protection from CPE, which is an indicator of protection from viral infection, can be calculated for each compound and the 50% effective concentrations (EC50) can be calculated using a nonlinear regression curve fitting equation provided by the GraphPad Prism® 4 software.
Compounds were tested to determine both their antiviral and toxicity to determine their therapeutic window. Determination of the EC50 and TD50 of these active compounds were repeated one additional time to confirm the window.
A general note: Damage to the host cells serves as the signal in cytopathic effect assays.

Where [3] appears, read: uninfected HEp-2 cells, 4 days incubation, MTT viability.

Bounds are passed on as bounds.

In general, EC50 refers to the concentration needed to bring the measured effect to its halfway point. Low values mean an effect from little substance, high ones a need for much substance.

With `Cc1ccccc1CN(Cc1cccn1-c1nccs1)Cc1cccn1-c1nccs1` [Example 37, 1-(2-methylphenyl)-N,N-bis{[1-(1,3-thiazol-2-yl)-1H-pyrrol-2-yl]methyl}methanamine], the “MTT TD50” value in data set [1] (setting [3]) amounted to 7.1 µM. The molecule further registered an EC50 in data set [2] of 33 nM.
For the molecule `Clc1cnc(CN(Cc2cccn2-c2nccs2)Cc2cccn2-c2nccs2)c(Cl)c1` [Example 38, 1-(3,5-dichloropyridin-2-yl)-N,N-bis{[1-(1,3-thiazol-2-yl)-1H-pyrrol-2-yl]methyl}methanamine], the “MTT TD50” value in data set [1] (setting [3]) worked out at 11 µM. A half-maximal effect in data set [2] (EC50) was put at 310 nM.
On to `CC(C)CN(Cc1cccn1-c1nccs1)Cc1cccn1-c1nccs1` [Example 39, 2-methyl-N,N-bis{[1-(1,3-thiazol-2-yl)-1H-pyrrol-2-yl]methyl}propan-1-amine], for which, in data set [1] (setting [3]), the “MTT TD50” value was determined as 8.3 µM. In data set [2], the EC50 worked out at 3400 nM.
Taken in the same sequence, the figures for `Fc1ccccc1CN(Cc1cccn1-c1nccs1)Cc1cccn1-c1nccs1` [Example 40, 1-(2-fluorophenyl)-N,N-bis{[1-(1,3-thiazol-2-yl)-1H-pyrrol-2-yl]methyl}methanamine] were 6.3 µM and 18 nM.
As to `Cc1c(C(C)N(Cc2cccn2-c2nccs2)Cc2ncc(-c3ccccc3)n2C)cnn1-c1cccc(F)c1` (centres unmarked) [Example 41, 1-[1-(3-fluorophenyl)-5-methyl-1H-pyrazol-4-yl]-N-[(1-methyl-5-phenyl-1H-imidazol-2-yl)methyl]-N-{[1-(1,3-thiazol-2-yl)-1H-pyrrol-2-yl]methyl}ethanamine], in data set [1] (setting [3]), the “MTT TD50” value amounted to 5.6 µM. Moreover, the EC50 in data set [2] is > 5600 nM.
Taken in the same sequence, the figures for `Clc1ccc(CN(Cc2cccn2-c2nncs2)Cc2cccn2-c2nncs2)c(Cl)c1` [Example 42, 1-(2,4-dichlorophenyl)-N,N-bis{[1-(1,3,4-thiadiazol-2-yl)-1H-pyrrol-2-yl]methyl}methanamine] were 32 µM and > 32000 nM.
The matching figures for `Cc1cc(N(Cc2cccn2-c2nncs2)Cc2cccn2-c2nncs2)n(-c2ccc(F)cc2)n1` [Example 43, 1-(4-fluorophenyl)-3-methyl-N,N-bis{[1-(1,3,4-thiadiazol-2-yl)-1H-pyrrol-2-yl]methyl}-1H-pyrazol-5-amine]: >32 µM and > 32000 nM.
The matching figures for `FC(F)(F)c1cccc(CN(Cc2cccn2-c2nccs2)Cc2cccn2-c2nccs2)c1` [Example 44, 1-[1-(1,3-thiazol-2-yl)-1H-pyrrol-2-yl]-N-{[1-(1,3-thiazol-2-yl)-1H-pyrrol-2-yl]methyl}-N-[3-(trifluoromethyl)benzyl]methanamine]: 38 µM and 120 nM.
As for `N#Cc1ccc(CN(Cc2cccn2-c2nccs2)Cc2cccn2-c2nccs2)cc1` [Example 45, 4-[(bis{[1-(1,3-thiazol-2-yl)-1H-pyrrol-2-yl]methyl}amino)methyl]benzonitrile], the “MTT TD50” value in data set [1] (setting [3]) was >32 µM. Besides, the response in data set [2] was half-maximal at 960 nM (EC50).
Turning to `CC(c1ccc(Cl)c(Cl)c1)N(Cc1cccn1-c1nccs1)Cc1cccn1-c1nccs1` (centres unmarked) [Example 46, 1-(3,4-dichlorophenyl)-N,N-bis{[1-(1,3-thiazol-2-yl)-1H-pyrrol-2-yl]methyl}ethanamine], the “MTT TD50” value in data set [1] (setting [3]) is >32 µM. The response in data set [2] was half-maximal at 550 nM (EC50).
Turning to `Clc1ccccc1CN(Cc1cccn1-c1nccs1)Cc1cccn1-c1nccs1` [Example 47, 1-(2-chlorophenyl)-N,N-bis{[1-(1,3-thiazol-2-yl)-1H-pyrrol-2-yl]methyl}methanamine], in data set [1] (setting [3]), the “MTT TD50” value worked out at 7.0 µM. In data set [2], a half-maximal response (EC50) required 15 nM.
In the case of `C[C@H](c1ccccc1Cl)N(Cc1cccn1-c1nccs1)Cc1cccn1-c1nccs1` [Example 48, (1R)-1-(2-chlorophenyl)-N,N-bis{[1-(1,3-thiazol-2-yl)-1H-pyrrol-2-yl]methyl}ethanamine], the “MTT TD50” value in data set [1] (setting [3]) is 6.7 µM. Also, the EC50 in data set [2] was 110 nM.
Taken in the same sequence, the figures for `C[C@@H](c1ccccc1Cl)N(Cc1cccn1-c1nccs1)Cc1cccn1-c1nccs1` [Example 49, (1S)-1-(2-chlorophenyl)-N,N-bis{[1-(1,3-thiazol-2-yl)-1H-pyrrol-2-yl]methyl}ethanamine] were 4.3 µM and 45 nM.
The matching figures for `c1cnnc(N(Cc2cccn2-c2nccs2)Cc2cccn2-c2nccs2)c1` [Example 50, N,N-bis{[1-(1,3-thiazol-2-yl)-1H-pyrrol-2-yl]methyl}pyridazin-3-amine]: >100 µM and > 100000 nM.
Turning to `c1ccc(C2(CCN(Cc3cccn3-c3nccs3)Cc3cccn3-c3nccs3)CC2)nc1` [Example 51, 2-[1-(pyridin-2-yl)cyclopropyl]-N,N-bis{[1-(1,3-thiazol-2-yl)-1H-pyrrol-2-yl]methyl}ethanamine], the “MTT TD50” value in data set [1] (human, 4 days) was 6.2 µM. Also, in data set [2], the EC50 was determined as 45 nM.
As to `c1cc(CN(Cc2cccn2-c2nccs2)C2CCCCC2)n(-c2nccs2)c1` [Example 52, N,N-bis{[1-(1,3-thiazol-2-yl)-1H-pyrrol-2-yl]methyl}cyclohexanamine], in data set [1] (setting [3]), the “MTT TD50” value is 7.2 µM. Also, in data set [2], the EC50 worked out at 100 nM.
`c1ccc(N(Cc2cccn2-c2nccs2)Cc2cccn2-c2nccs2)cc1` [Example 53, N,N-bis{[1-(1,3-thiazol-2-yl)-1H-pyrrol-2-yl]methyl}aniline]: in data set [1] (setting [3]), the “MTT TD50” value was >32 µM. In data set [2], this molecule returned an EC50 of 2700 nM.
As to `FC(F)(F)c1ccc(CN(Cc2cccn2-c2nncs2)Cc2cccn2-c2nncs2)cc1` [Example 54, 1-[1-(1,3,4-thiadiazol-2-yl)-1H-pyrrol-2-yl]-N-{[1-(1,3,4-thiadiazol-2-yl)-1H-pyrrol-2-yl]methyl}-N-[4-(trifluoromethyl)benzyl]methanamine], the “MTT TD50” value in data set [1] (setting [3]) worked out at 21 µM. Also, the EC50 in data set [2] is > 21000 nM.
The matching figures for `Clc1cccc(Cl)c1CN(Cc1cccn1-c1nncs1)Cc1cccn1-c1nncs1` [Example 55, 1-(2,6-dichlorophenyl)-N,N-bis{[1-(1,3,4-thiadiazol-2-yl)-1H-pyrrol-2-yl]methyl}methanamine]: >32 µM and > 32000 nM.
Taken in the same sequence, the figures for `N#Cc1ccc(CN(Cc2cccn2-c2nncs2)Cc2cccn2-c2nncs2)cc1` [Example 56, 4-[(bis{[1-(1,3,4-thiadiazol-2-yl)-1H-pyrrol-2-yl]methyl}amino)methyl]benzonitrile] were >100 µM and 46000 nM.
As to `FC1(F)CCC(CN(Cc2cccn2-c2nccs2)Cc2cccn2-c2nccs2)CC1` [Example 57, 1-(4,4-difluorocyclohexyl)-N,N-bis{[1-(1,3-thiazol-2-yl)-1H-pyrrol-2-yl]methyl}methanamine], in data set [1] (setting [3]), the “MTT TD50” value was found to be 20 µM. The molecule also came in with an EC50 in data set [2] of 310 nM.
Taken in the same sequence, the figures for `FC(F)(F)Cn1cc(CN(Cc2cccn2-c2nccs2)Cc2cccn2-c2nccs2)cn1` [Example 58, 1-[1-(1,3-thiazol-2-yl)-1H-pyrrol-2-yl]-N-{[1-(1,3-thiazol-2-yl)-1H-pyrrol-2-yl]methyl}-N-{[1-(2,2,2-trifluoroethyl)-1H-pyrazol-4-yl]methyl}methanamine] were 49 µM and 520 nM.
On to `FC(F)n1ccnc1CN(Cc1cccn1-c1nccs1)Cc1cccn1-c1nccs1` [Example 59, 1-[1-(difluoromethyl)-1H-imidazol-2-yl]-N,N-bis{[1-(1,3-thiazol-2-yl)-1H-pyrrol-2-yl]methyl}methanamine], for which the “MTT TD50” value in data set [1] (setting [3]) stood at 35 µM. Further, the EC50 in data set [2] turned out to be 4100 nM.
Taken in the same sequence, the figures for `c1cncc(C2(CCN(Cc3cccn3-c3nccs3)Cc3cccn3-c3nccs3)CC2)c1` [Example 60, 2-[1-(pyridin-3-yl)cyclopropyl]-N,N-bis{[1-(1,3-thiazol-2-yl)-1H-pyrrol-2-yl]methyl}ethanamine] were >100 µM and 850 nM.
The matching figures for `c1cc(CN(Cc2cccn2-c2nncs2)C[C@H]2CCOC2)n(-c2nncs2)c1` [Example 61, 1-[(3R)-tetrahydrofuran-3-yl]-N,N-bis{[1-(1,3,4-thiadiazol-2-yl)-1H-pyrrol-2-yl]methyl}methanamine]: >100 µM and > 100000 nM.
